Test results taken from publication PMC6514978, “Synthesis, Antibacterial Activities, Mode of Action and Acute Toxicity Studies of New Oxazolidinone-Fluoroquinolone Hybrids” (Molecules, 2019).
≈ marks a conversion by molar mass, not a printed value.

Key:
MRSA (13B262) = assay: MIC, broth microdilution (CLSI), clinical isolate; type: cell-based; conditions: Staphylococcus aureus
Excerpt: (§1) 6 standard strains and 3 clinical isolates were used to the preliminary evaluation of in vitro antibacterial activities of oxazolidinone-fluoroquinolone hybrids. For the further evaluation of hybrids OBP-4 and OBP-5, 263 clinical isolates including S. aureus (46), S. haemolyticus(32), S. epidermidis (10), E. faecalis (72), E. faecium (47), S. pneumoniae (13), H. parasuis (34), S. suis (9), and 8 resistant strains including MRSA, MRSE, CIP-resistant S. aureus and S. haemolyticus, VAN and quinolone-resistant S. pneumoniae, LZD-resistant E. faecalis, LZD/VAN and quinolone-resistant E. faecium were collected and tested.
(§2) Susceptibility testing of oxazolidinone-fluoroquinolone hybrids against various bacteria was performed by the broth microdilution method as outlined by the Clinical and Laboratory Standards Institute (CLSI). Three types of media, including cation-adjusted Mueller Hinton broth, Haemophilus Test Medium and cation-adjusted Mueller Hinton broth that contained 3%–5% lysed horse blood, were used to culture the corresponding bacteria. All compounds including comparator drugs were dissolved in an appropriate solvent at a concentration of 2.048 mg/mL and then serially diluted two-fold to provide the required concentrations. A final inoculum of 5 × 10^5 CFU/mL was used and plates were read after incubation for 16–24 h at 35 °C. […] Standard quality control strains (ATCC) were included throughout. Each determination was repeated in triplicate.

[1] = system: S. agalactiae^R (13B317), levofloxacin-resistant S. agalactiae; assay: MIC, broth microdilution (CLSI), clinical isolate; type: cell-based; conditions: Streptococcus agalactiae; levofloxacin-resistant S. agalactiae (13B317)
Excerpt: as §1, §2

E. coli (ATCC25922) = assay: MIC, broth microdilution (CLSI), standard strain; type: cell-based; conditions: Escherichia coli; E. coli (ATCC25922); read-out: MIC
Excerpt: as §1, §2

E. faecalis (ATCC29212) = assay: MIC, broth microdilution (CLSI), standard strain; type: cell-based; conditions: Enterococcus faecalis; E. faecalis (ATCC29212); read-out: MIC
Excerpt: as §1, §2

[2] = system: H. influenzae (ATCC49247); assay: MIC, broth microdilution (CLSI), standard strain; type: cell-based; conditions: Haemophilus influenzae
Excerpt: as §1, §2

[3] = system: P. Aeruginosa (ATCC27853); assay: MIC, broth microdilution (CLSI), standard strain; type: cell-based; conditions: Pseudomonas aeruginosa; P. Aeruginosa (ATCC27853); read-out: MIC
Excerpt: as §1, §2

S. aureus (ATCC29213) = assay: MIC, broth microdilution (CLSI), standard strain; type: cell-based; conditions: Staphylococcus aureus
Excerpt: as §1, §2

[4] = system: S. pneumoniae (ATCC49619); assay: MIC, broth microdilution (CLSI), standard strain; type: cell-based; conditions: Streptococcus pneumoniae
Excerpt: as §1, §2

[5] = system: S. epidermidis (10) clinical isolates; assay: Susceptibility of clinical isolates (MIC); type: cell-based, Staphylococcus epidermidis; conditions: for Cumulative % of strains inhibited at MIC / No. of strains inhibited at MIC: S. epidermidis (10)
Protocol: as §2, with “All compounds including comparator drugs were dissolved in an appropriate solvent at a concentration of 2.048 mg/mL and then serially diluted two-fold to provide the required concentrations.” left out

[6] = system: S. suis (9) clinical isolates; assay: Susceptibility of clinical isolates (MIC); type: cell-based, Streptococcus suis; conditions: for Cumulative % of strains inhibited at MIC / No. of strains inhibited at MIC: S. suis (9)
Protocol: as §2, with “All compounds including comparator drugs were dissolved in an appropriate solvent at a concentration of 2.048 mg/mL and then serially diluted two-fold to provide the required concentrations.” left out

[7] = system: S. pneumoniae (13) clinical isolates; assay: Susceptibility of clinical isolates (MIC); type: cell-based, Streptococcus pneumoniae; conditions: for Cumulative % of strains inhibited at MIC / No. of strains inhibited at MIC: S. pneumoniae (13)
Protocol: as §2, with “All compounds including comparator drugs were dissolved in an appropriate solvent at a concentration of 2.048 mg/mL and then serially diluted two-fold to provide the required concentrations.” left out

[8] = system: E. faecium (47) clinical isolates; assay: Susceptibility of clinical isolates (MIC); type: cell-based, Enterococcus faecium; conditions: for Cumulative % of strains inhibited at MIC / No. of strains inhibited at MIC: E. faecium (47)
Protocol: as §2, with “All compounds including comparator drugs were dissolved in an appropriate solvent at a concentration of 2.048 mg/mL and then serially diluted two-fold to provide the required concentrations.” left out

[9] = system: H. parasuis (34) clinical isolates; assay: Susceptibility of clinical isolates (MIC); type: cell-based, Haemophilus parasuis; conditions: for Cumulative % of strains inhibited at MIC / No. of strains inhibited at MIC: H. parasuis (34)
Protocol: as §2, with “All compounds including comparator drugs were dissolved in an appropriate solvent at a concentration of 2.048 mg/mL and then serially diluted two-fold to provide the required concentrations.” left out

MRSE = assay: MIC against drug-resistant strain; type: cell-based, S. epidermidis; conditions: Staphylococcus epidermidis, read-out: MIC
Protocol: (§3) 6 standard strains and 3 clinical isolates were used to the preliminary evaluation of in vitro antibacterial activities of oxazolidinone-fluoroquinolone hybrids.
as §2, with “All compounds including comparator drugs were dissolved in an appropriate solvent at a concentration of 2.048 mg/mL and then serially diluted two-fold to provide the required concentrations.” left out

CIP-resistant S. aureus = assay: MIC against drug-resistant strain; type: cell-based; conditions: Staphylococcus aureus; S. aureus, CIP-resistant; read-out: MIC
Protocol: as §3
as §2, with “All compounds including comparator drugs were dissolved in an appropriate solvent at a concentration of 2.048 mg/mL and then serially diluted two-fold to provide the required concentrations.” left out

[10] = system: CIP-resistant S. haemolyticus; assay: MIC against drug-resistant strain; type: cell-based; conditions: Staphylococcus haemolyticus; S. haemolyticus, CIP-resistant; read-out: MIC
Protocol: as §3
as §2, with “All compounds including comparator drugs were dissolved in an appropriate solvent at a concentration of 2.048 mg/mL and then serially diluted two-fold to provide the required concentrations.” left out

[11] = system: LZD and quinolone-resistant E. faecium; assay: MIC against drug-resistant strain; type: cell-based; conditions: Enterococcus faecium; E. faecium, LZD and quinolone-resistant; read-out: MIC
Protocol: as §3
as §2, with “All compounds including comparator drugs were dissolved in an appropriate solvent at a concentration of 2.048 mg/mL and then serially diluted two-fold to provide the required concentrations.” left out

MRSA = assay: MIC against drug-resistant strain; type: cell-based; conditions: Staphylococcus aureus, read-out: MIC
Protocol: as §3
as §2, with “All compounds including comparator drugs were dissolved in an appropriate solvent at a concentration of 2.048 mg/mL and then serially diluted two-fold to provide the required concentrations.” left out

[12] = system: VAN and quinolone-resistant E. faecium; assay: MIC against drug-resistant strain; type: cell-based; conditions: Enterococcus faecium; E. faecium, VAN and quinolone-resistant; read-out: MIC
Protocol: as §3
as §2, with “All compounds including comparator drugs were dissolved in an appropriate solvent at a concentration of 2.048 mg/mL and then serially diluted two-fold to provide the required concentrations.” left out

[13] = system: VAN and quinolone-resistant S. pneumoniae; assay: MIC against drug-resistant strain; type: cell-based; conditions: Streptococcus pneumoniae; S. pneumoniae, VAN and quinolone-resistant; read-out: MIC
Protocol: as §3
as §2, with “All compounds including comparator drugs were dissolved in an appropriate solvent at a concentration of 2.048 mg/mL and then serially diluted two-fold to provide the required concentrations.” left out

Compound: C[C@H]1CCc2c(N3CCC(O)(COc4ccc(N5C[C@H](CO)OC5=O)cc4F)CC3)c(F)cc3c(=O)c(C(=O)O)cn1c23 [OBP-4]
- MIC (MRSA (13B262)): 0.5 µg/mL (≈ 0.834 µM)
- MIC [1]: 0.031 µg/mL (≈ 0.0517 µM)
- MIC (E. coli (ATCC25922)): 4 µg/mL (≈ 6.67 µM)
- MIC (E. faecalis (ATCC29212)): 0.25 µg/mL (≈ 0.417 µM)
- MIC [2]: 0.25 µg/mL (≈ 0.417 µM)
- MIC [3]: 64 µg/mL (≈ 107 µM)
- MIC (S. aureus (ATCC29213)): 0.016 µg/mL (≈ 0.0267 µM)
- MIC [4]: 0.031 µg/mL (≈ 0.0517 µM)
- Cumulative % of strains inhibited at MIC ([5]; MIC 0.125 µg/mL): 60.0%
- No. of strains inhibited at MIC ([5]; MIC 0.125 µg/mL): 4
- Cumulative % of strains inhibited at MIC ([5]; MIC […]): 100.0%
- No. of strains inhibited at MIC ([5]; MIC […]): 4
- Cumulative % of strains inhibited at MIC ([5]; MIC ≤[…]): 20.0%
- No. of strains inhibited at MIC ([5]; MIC ≤[…]): 2
- MIC50 ([5]; Staphylococcus epidermidis, S. epidermidis, 10 clinical isolates, read-out: MIC50): 0.125 µg/mL (≈ 0.208 µM)
- MIC90 ([5]; Staphylococcus epidermidis, S. epidermidis, 10 clinical isolates, read-out: MIC90): 0.25 µg/mL (≈ 0.417 µM)
- MIC ([5]; Staphylococcus epidermidis, S. epidermidis, 10 clinical isolates, read-out: MIC Range): 0.0625 to 0.25 µg/mL (≈ 0.104 to 0.417 µM)
- Cumulative % of strains inhibited at MIC ([6]; MIC 0.125 µg/mL): 77.8%
- No. of strains inhibited at MIC ([6]; MIC 0.125 µg/mL): 2
- Cumulative % of strains inhibited at MIC ([6]; MIC 2 µg/mL): 100%
- No. of strains inhibited at MIC ([6]; MIC 2 µg/mL): 1
- Cumulative % of strains inhibited at MIC ([6]; MIC […]): 88.9%
- No. of strains inhibited at MIC ([6]; MIC […]): 1
- Cumulative % of strains inhibited at MIC ([6]; MIC ≤[…]): 55.6%
- No. of strains inhibited at MIC ([6]; MIC ≤[…]): 5
- MIC50 ([6]; Streptococcus suis, S. suis, 9 clinical isolates, read-out: MIC50): ≤ 0.0625 µg/mL
- MIC90 ([6]; Streptococcus suis, S. suis, 9 clinical isolates, read-out: MIC90): 0.25 µg/mL (≈ 0.417 µM)
- MIC ([6]; Streptococcus suis, S. suis, 9 clinical isolates, read-out: MIC Range): 0.0625 to 2 µg/mL (≈ 0.104 to 3.34 µM)
- Cumulative % of strains inhibited at MIC ([7]; MIC 0.125 µg/mL): 38.5%
- No. of strains inhibited at MIC ([7]; MIC 0.125 µg/mL): 3
- Cumulative % of strains inhibited at MIC ([7]; MIC 0.5 µg/mL): 100.0%
- No. of strains inhibited at MIC ([7]; MIC 0.5 µg/mL): 1
- Cumulative % of strains inhibited at MIC ([7]; MIC […]): 92.3%
- No. of strains inhibited at MIC ([7]; MIC […]): 7
- Cumulative % of strains inhibited at MIC ([7]; MIC ≤[…]): 15.4%
- No. of strains inhibited at MIC ([7]; MIC ≤[…]): 2
- MIC Range ([7]; S. pneumoniae, 13 clinical isolates): ≤0.0625 to 0.5 µg/mL
- MIC50 ([7]; Streptococcus pneumoniae, S. pneumoniae, 13 clinical isolates, read-out: MIC50): 0.25 µg/mL (≈ 0.417 µM)
- MIC90 ([7]; Streptococcus pneumoniae, S. pneumoniae, 13 clinical isolates, read-out: MIC90): 0.25 µg/mL (≈ 0.417 µM)
- Cumulative % of strains inhibited at MIC ([8]; MIC 0.5 µg/mL): 95.7%
- No. of strains inhibited at MIC ([8]; MIC 0.5 µg/mL): 37
- Cumulative % of strains inhibited at MIC ([8]; MIC 1 µg/mL): 97.9%
- No. of strains inhibited at MIC ([8]; MIC 1 µg/mL): 1
- Cumulative % of strains inhibited at MIC ([8]; MIC 2 µg/mL): 100.0%
- No. of strains inhibited at MIC ([8]; MIC 2 µg/mL): 1
- No. of strains inhibited at MIC ([8]; MIC […]): 8
- fold higher activity than comparator agents ([8]; E. faecium clinical isolates): 16- to 128 fold
- MIC Range ([8]; E. faecium, 47 clinical isolates): 0.25 to 2 µg/mL
- MIC50 ([9]; Glaesserella parasuis, H. parasuis, 34 clinical isolates, read-out: MIC50): 1 µg/mL (≈ 1.67 µM)
- MIC90 ([9]; Glaesserella parasuis, H. parasuis, 34 clinical isolates, read-out: MIC90): 4 µg/mL (≈ 6.67 µM)
- Cumulative % of strains inhibited at MIC ([9]; MIC 0.5 µg/mL): 35.3%
- No. of strains inhibited at MIC ([9]; MIC 0.5 µg/mL): 5
- Cumulative % of strains inhibited at MIC ([9]; MIC 1 µg/mL): 61.8%
- No. of strains inhibited at MIC ([9]; MIC 1 µg/mL): 9
- Cumulative % of strains inhibited at MIC ([9]; MIC 2 µg/mL): 79.4%
- No. of strains inhibited at MIC ([9]; MIC 2 µg/mL): 6
- Cumulative % of strains inhibited at MIC ([9]; MIC 4 µg/mL): 100.0%
- No. of strains inhibited at MIC ([9]; MIC 4 µg/mL): 7
- Cumulative % of strains inhibited at MIC ([9]; MIC […]): 20.6%
- No. of strains inhibited at MIC ([9]; MIC […]): 3
- Cumulative % of strains inhibited at MIC ([9]; MIC ≤[…]): 11.8%
- No. of strains inhibited at MIC ([9]; MIC ≤[…]): 4
- MIC Range ([9]; H. parasuis, 34 clinical isolates): ≤0.0625 to 4 µg/mL
- MIC (MRSE): ≤ 0.0625 µg/mL
- MIC (CIP-resistant S. aureus): 0.125 µg/mL (≈ 0.208 µM)
- MIC [10]: 0.5 µg/mL (≈ 0.834 µM)
- MIC [11]: 0.5 µg/mL (≈ 0.834 µM)
- MIC (MRSA): 0.25 µg/mL (≈ 0.417 µM)
- MIC [12]: 0.5 µg/mL (≈ 0.834 µM)
- MIC [13]: 0.25 µg/mL (≈ 0.417 µM)
